In ChEMBL document CHEMBL1201862, “PubChem BioAssay data set” (2004):
Several values for one entry are separate records, joined by “and”; a condition that tells them apart may be missing. Equal values may be shown once.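 Each compound was tested at five concentrations against cells in 96-well plates for 48 hours. Abbreviation: GI50, concentration required for 50% inhibition of growth.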 Activity calls are given as the source filed them. Cut-off read from the data, not from the text of the source: active = GI50 up to about 1.1 µM and inactive = higher.

Columns and labels:
Experiment in all cases: NCI tumour cell line growth inhibition, 48 h
[1] = test system: MOLT-4
[2] = test system: RPMI-8226
[3] = test system: OVCAR-8
[4] = test system: OVCAR-5
[5] = test system: HCT-15
[6] = test system: RXF 393
[7] = test system: OVCAR-4
[8] = test system: M14
[9] = test system: NCI-H460
[10] = test system: HCC 2998
[11] = test system: SR
[12] = test system: LOX IMVI
[13] = test system: HL-60
[14] = test system: NCI-H23
[15] = test system: OVCAR-3
[16] = test system: T47D
[17] = test system: KM12
[18] = test system: ACHN
[19] = test system: CAKI-1
[20] = test system: HOP-92

Row | Structure (SMILES) | GI50 [1] | GI50 [2] | GI50 [3] | GI50 [4] | GI50 [5] | GI50 [6] | GI50 [7] | GI50 [8] | GI50 [9] | GI50 [10] | GI50 [11] | GI50 [12] | GI50 [13] | GI50 [14] | GI50 [15] | GI50 [16] | GI50 [17] | GI50 [18] | GI50 [19] | GI50 [20]
1 | Cc1cccc(NC(=S)Nc2cccc(Cl)c2)n1 | > 100 µM (inactive) | > 100 µM (inactive) | > 80.9 µM (inactive) | > 100 µM (inactive) | > 100 µM | 29.7 µM (inactive) | > 100 µM (inactive) | > 100 µM (inactive) | > 100 µM (inactive) | > 100 µM (inactive) | > 100 µM (inactive) | > 100 µM (inactive) | > 100 µM (inactive) | > 100 µM (inactive) | > 100 µM (inactive) | > 100 µM (inactive) | > 100 µM (inactive) | > 100 µM (inactive) | > 100 µM (inactive) | 
2 | CSC(=O)c1sc(SC)[n+](-c2ccccc2)c1O | 11.1 µM (inactive) | 21.5 µM (inactive) | 22.8 µM (inactive) | 18.7 µM (inactive) | 21 µM | 14.5 µM (inactive) | 12.1 µM (inactive) | 14.3 µM (inactive) | 27.9 µM (inactive) | 19.6 µM (inactive) | 29.8 µM (inactive) | 12.6 µM (inactive) | > 10 µM (inactive) | 17.7 µM (inactive) | 13.2 µM (inactive) | 7.35 µM (inactive) | > 10 µM (inactive) | 27.9 µM (inactive) |  | 
3 | CCCCCCCCCC(=O)NCCc1c[nH]c2ccc(OC)cc12 | 64.7 µM (inactive) | 21.1 µM (inactive) | 16.6 µM (inactive) | 23.9 µM (inactive) | 19.1 µM | 19 µM (inactive) | > 100 µM (inactive) | 17.9 µM (inactive) | 23.3 µM (inactive) | 19.5 µM (inactive) | 40.9 µM (inactive) | 13.8 µM (inactive) |  | 17.3 µM (inactive) | 15.9 µM (inactive) | 19.7 µM (inactive) | 27.9 µM (inactive) | 16.7 µM (inactive) | 25.4 µM (inactive) | 16.2 µM (inactive)
4 | Cn1c(CCC2(C)Cc3ccccc3C(=O)O2)cc2ccccc2c1=O (stereo not drawn) | > 10 µM (inactive) | 17.3 µM (inactive) | > 100 µM (inactive) | 32.8 µM (inactive) | 33.7 µM | 10.2 µM (inactive) | 36 µM (inactive) | 16.4 µM (inactive) | 24.8 µM (inactive) | 34.4 µM (inactive) | 34.4 µM (inactive) |  | 27.2 µM (inactive) | 24.7 µM (inactive) | 21 µM (inactive) | 24.3 µM (inactive) | 4.66 µM (inactive) |  | 13.9 µM (inactive) | 57.5 µM (inactive)
5 | S=c1[nH]nc(Cn2c3ccc(Br)cc3c3nc4ccccc4nc32)o1 | 27.1 µM (inactive) | 4.29 µM (inactive) | 43.2 µM (inactive) | > 84.5 µM (inactive) | 1.06 µM | 14.8 µM (inactive) |  | 4.55 µM (inactive) | 36.9 µM (inactive) | 38.8 µM (inactive) | 0.568 µM (active) |  |  | 25.2 µM (inactive) | 29.9 µM (inactive) | 47.3 µM (inactive) | 47.3 µM (inactive) | 39.6 µM (inactive) | 41.6 µM (inactive) | 
6 | CCc1c(N=[N+]=[N-])c2ccccc2oc1=O | > 100 µM (inactive) | > 100 µM (inactive) | > 100 µM (inactive) |  | > 100 µM | > 100 µM (inactive) | > 100 µM (inactive) | > 100 µM (inactive) | > 100 µM (inactive) | > 100 µM (inactive) | > 100 µM (inactive) | > 100 µM (inactive) | > 100 µM (inactive) | > 100 µM (inactive) | > 100 µM (inactive) | > 100 µM (inactive) | > 100 µM (inactive) | > 100 µM (inactive) |  | > 100 µM (inactive)
7 | Cc1ccc([N+](=O)[O-])cc1S(=O)(=O)Nc1ccc(C2=NN(S(=O)(=O)c3cc([N+](=O)[O-])ccc3C)C(c3ccco3)C2)cc1 (stereo not drawn) | 28.2 µM (inactive) | 25.8 µM (inactive) | 44.5 µM (inactive) | > 100 µM (inactive) | 41.7 µM | 26.8 µM (inactive) | 74.8 µM (inactive) | 42 µM (inactive) |  |  | 33.5 µM (inactive) | 39 µM (inactive) | 38.8 µM (inactive) | 37.6 µM (inactive) | 37.1 µM (inactive) | 28.6 µM (inactive) | 39.4 µM (inactive) | 36.6 µM (inactive) | 45.8 µM (inactive) | 16.7 µM (inactive)
8 | Cc1cc(C)nc(NS(=O)(=O)c2ccc(Nc3c4ccccc4nc4c(C(=O)NCCO)cccc34)cc2)n1 | 4.79 µM (inactive) | 10.3 µM (inactive) | 8.24 µM (inactive) | 24.5 µM (inactive) | 17.8 µM |  | 33.3 µM (inactive) | 31.1 µM (inactive) | 14.1 µM (inactive) | 10.4 µM (inactive) | 10.7 µM (inactive) | 10.6 µM (inactive) | 31.8 µM (inactive) | 23.8 µM (inactive) | 19.8 µM (inactive) | 25.9 µM (inactive) | 10.9 µM (inactive) | 19.7 µM (inactive) | 23.3 µM (inactive) | > 100 µM (inactive)
9 | COc1ccc(NC(=O)CC(=O)N2N=C(c3ccccc3)C(/N=N/c3ccc(S(=O)(=O)CCOS(=O)(=O)O)cc3)C2=O)cc1 (stereo not drawn) | > 100 µM (inactive) | > 100 µM (inactive) | > 100 µM (inactive) |  | > 100 µM | > 100 µM (inactive) |  | > 100 µM (inactive) | > 100 µM (inactive) | > 100 µM (inactive) | > 100 µM (inactive) | > 100 µM (inactive) | > 100 µM (inactive) | > 100 µM (inactive) | > 100 µM (inactive) | > 100 µM (inactive) | > 100 µM (inactive) | > 100 µM (inactive) | > 100 µM (inactive) | > 100 µM (inactive)
10 | NC(=S)N/N=C1\CCCC1C(O)(C(F)(F)Cl)C(F)(F)Cl (stereo not drawn) | > 10 µM (inactive) | > 10 µM (inactive) | > 10 µM (inactive) | > 10 µM (inactive) | > 10 µM | > 10 µM (inactive) | > 10 µM (inactive) | > 10 µM (inactive) | > 10 µM (inactive) | > 10 µM (inactive) | > 10 µM (inactive) | > 10 µM (inactive) |  | > 10 µM (inactive) | > 10 µM (inactive) | > 10 µM (inactive) | > 10 µM (inactive) | > 10 µM (inactive) | > 10 µM (inactive) | > 10 µM (inactive)
11 | CC12CC(c3ccccc3O1)C(C(=O)Nc1cccc(F)c1)C(=O)N2 (stereo not drawn) | 18.8 µM (inactive) | 40.7 µM (inactive) | 24.4 µM (inactive) | > 100 µM (inactive) | 42.9 µM |  | 30.1 µM (inactive) | 90.4 µM (inactive) | 47.2 µM (inactive) | > 100 µM (inactive) | 38.7 µM (inactive) | 49 µM (inactive) | 30.5 µM (inactive) | 17.3 µM (inactive) | 92 µM (inactive) | 25.2 µM (inactive) | 49.7 µM (inactive) | > 100 µM (inactive) | 92.3 µM (inactive) | 
12 | C=CCN(c1cc(OC)c2c(c1[N+](=O)[O-])C(C)(SC)C(=O)N2)S(C)(=O)=O (stereo not drawn) |  | 94 µM (inactive) | > 100 µM (inactive) |  | > 100 µM |  | 47.8 µM (inactive) |  | > 100 µM (inactive) | 65.5 µM (inactive) | 31.8 µM (inactive) | > 100 µM (inactive) |  | > 100 µM (inactive) |  | > 100 µM (inactive) | > 100 µM (inactive) | > 100 µM (inactive) | > 100 µM (inactive) | 32.5 µM (inactive)
13 | c1ccc2c(c1)SCCCSCCSCCCS2 | > 100 µM (inactive) |  | > 100 µM (inactive) | > 100 µM (inactive) | > 100 µM |  | 93.5 µM (inactive) | > 100 µM (inactive) | > 100 µM (inactive) | > 100 µM (inactive) | > 100 µM (inactive) | > 100 µM (inactive) | 39.4 µM (inactive) | > 100 µM (inactive) | > 100 µM (inactive) | > 100 µM (inactive) | > 100 µM (inactive) |  |  | 48.9 µM (inactive)
14 | C=C1CCC[C@@H](C)C(O)[C@@H]2OC(=O)C(=C)[C@@H]2C[C@@H](OC(C)=O)[C@@]2(C)CC[C@@H]1O2 (stereo partly drawn) | 4.84 µM (inactive) | 8.85 µM (inactive) | 7.19 µM (inactive) | 7.87 µM (inactive) | 3.78 µM | 6.49 µM (inactive) | 13.7 µM (inactive) | 6.97 µM (inactive) |  | 7.89 µM (inactive) | 1.75 µM (inactive) |  |  | 8.09 µM (inactive) | 5.37 µM (inactive) | 9.66 µM (inactive) | 7.76 µM (inactive) | 6.89 µM (inactive) | 6.89 µM (inactive) | 7.96 µM (inactive)
15 | O=c1c(Cl)c(Cl)cnn1-c1ccccc1 | 1.82 µM (inactive) and 1.47 µM (inactive) | 5.92 µM (inactive) and 7.26 µM (inactive) | 3.85 µM (inactive) and 2.39 µM (inactive) |  | 2.35 µM and 1.85 µM | 1.9 µM (inactive) and 2.52 µM (inactive) | 2.19 µM (inactive) and 1.53 µM (inactive) | 1.74 µM (inactive) and 1.76 µM (inactive) | 2.92 µM (inactive) and 3.72 µM (inactive) | 3.42 µM (inactive) and 3.85 µM (inactive) | 2.14 µM (inactive) and 1.61 µM (inactive) | 1.8 µM (inactive) and 1.19 µM (inactive) | 893 nM (active) and 1.09 µM (active) |  | 2.03 µM (inactive) and 1.99 µM (inactive) | 4.33 µM (inactive) and 2.44 µM (inactive) | 8.91 µM (inactive) and 7.94 µM (inactive) | 7.11 µM (inactive) and 5.04 µM (inactive) |  | 
